Reference: article PMC4938916, “Effect of mutations to amino acid A301 and F361 in thermostability and catalytic activity of the β-galactosidase from Bacillus subtilis VTCC-DVN-12-01” (BMC Biochemistry, 2016)

How the values were obtained:
Test in all cases: o-nitrophenol release at […] nm, Lineweaver-Burk
Assay type in all cases: biochemical
Conditions in all cases: 100 mM buffer Z (1 mM MgSO4, 50 mM 2-mercaptoethanol), pH 7.0, 55 °C; apparent
[1] = target: T1, β-galactosidase LacA (LacA-WT) (Bacillus subtilis, UniProt O07012, A286V, form not given)
T1 construct: gene ganA; full lacA gene (2061 bp) in pET22b(+), C-terminal 6xHis tag kept, E. coli JM109(DE3), Ni ProBond purified, 70 kDa, GH42

[2] = target: T2, β-galactosidase LacA (LacA-WT) (Bacillus subtilis, UniProt O07012, F346Y, form not given)
T2 construct: gene ganA; full lacA gene (2061 bp) in pET22b(+), C-terminal 6xHis tag kept, E. coli JM109(DE3), Ni ProBond purified, 70 kDa, GH42

[3] = target: T3, β-galactosidase LacA (LacA-WT) (Bacillus subtilis, UniProt O07012)
T3 construct: gene ganA; full lacA gene (2061 bp) in pET22b(+), C-terminal 6xHis tag kept, E. coli JM109(DE3), Ni ProBond purified, 70 kDa, GH42
T3 sequence (O07012 whole entry): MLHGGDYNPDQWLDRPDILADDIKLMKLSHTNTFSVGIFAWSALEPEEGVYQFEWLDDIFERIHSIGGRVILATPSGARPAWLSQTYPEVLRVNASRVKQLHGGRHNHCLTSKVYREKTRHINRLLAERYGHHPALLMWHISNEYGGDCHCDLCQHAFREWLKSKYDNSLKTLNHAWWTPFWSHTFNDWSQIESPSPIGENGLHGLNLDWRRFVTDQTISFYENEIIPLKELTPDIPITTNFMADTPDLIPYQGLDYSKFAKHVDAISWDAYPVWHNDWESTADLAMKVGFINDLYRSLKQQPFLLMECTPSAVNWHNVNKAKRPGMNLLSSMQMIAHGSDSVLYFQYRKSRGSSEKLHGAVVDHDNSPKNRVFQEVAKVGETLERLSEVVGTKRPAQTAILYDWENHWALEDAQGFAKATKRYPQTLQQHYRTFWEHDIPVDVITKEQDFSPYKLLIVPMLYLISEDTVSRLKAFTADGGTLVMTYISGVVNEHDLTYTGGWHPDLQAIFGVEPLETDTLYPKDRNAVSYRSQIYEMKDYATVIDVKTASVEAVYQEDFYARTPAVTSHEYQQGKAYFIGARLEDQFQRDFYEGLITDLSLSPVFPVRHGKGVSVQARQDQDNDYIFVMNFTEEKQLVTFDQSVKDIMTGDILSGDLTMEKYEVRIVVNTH

T1 sequence (O07012 whole entry A286V, form open): as the sequence (O07012 whole entry) above, with A286V counted along it
T2 sequence (O07012 whole entry F346Y, form open): as the sequence (O07012 whole entry) above, with F346Y counted along it

Km [1]: 5.57 ± 0.56 mM
Km [2]: 8.02 ± 0.27 mM
Km [3]: 9.28 ± 0.72 mM
Structure (SMILES): O=[N+]([O-])c1ccccc1O[C@@H]1O[C@H](CO)[C@H](O)[C@H](O)[C@H]1O [oNPG, Ortho-nitrophenyl-β-D-galactopyranoside]
